Assays:
[1] = tested on: C. albicans; test: Antifungal susceptibility (MIC/MFC), CLSI criteria, 96-well double dilution; assay type: cell-based, Candida albicans; settings: for Susceptibility (MIC90): 0.5 McFarland inoculum (10^6 cells/ml)
Experimental: Antifungal activity of the small molecules was evaluated using USA standards, Clinical and Laboratory Standards Institute (CLSI) criteria. In brief, inocula from 24 h Candida cultures on Sabourauds's dextore agar were standardized to a turbidity equivalent of 0.5 McFarland standards at 520 nm with a spectrophotometer. The suspensions were further diluted in Rosewell Park Memorial Institute (RPMI) 1640 medium (Life technologies, New York, USA) to yield an inoculum concentration of approximately 0.5 1×10^3 to 2.5 1×10^3 cells/ml. Minimum inhibitory concentration (MIC) and minimum fungicidal concentration (MFC) assay was performed in 96-well plates (Iwaki, Tokyo, Japan) and each of the Candida species was exposed to a double dilution of SM21. Amphotericin B was used as a positive control. All the experiments were preformed three occasions with duplicates for all isolates. The plates were incubated at 35° C. for 48 h to evaluate MIC. In the case of Cryotococcus neoformans, reading were taken after 72 h. Aforementioned assay was performed for C. albicans ATCC 90028, C. albicans SC5314 and 10 C. albicans clinical isolates. Moreover, MIC/MFC determination was carried out for other fungal species such as C. glabrata, C. krusei, C. tropicalis, C. parapsilosis, C. neoformans, Aspergillus fumigates and Penicillium marneffei. […] Next using dose-dependent assay we tested that MIC/MFC of SM21 from 10^3 cells/ml to 10^7 cells/ml of C. albicans (Table 2). Each of the foregoing experiment was repeated on three different occasions.

[2] = tested on: C. neoformans; test: Antifungal susceptibility (MIC/MFC), CLSI criteria, reading after 72 h; assay type: cell-based, Cryptococcus neoformans; settings: 0.5 McFarland inoculum (10^6 cells/ml)
Experimental: (§1) Antifungal activity of the small molecules was evaluated using USA standards, Clinical and Laboratory Standards Institute (CLSI) criteria. In brief, inocula from 24 h Candida cultures on Sabourauds's dextore agar were standardized to a turbidity equivalent of 0.5 McFarland standards at 520 nm with a spectrophotometer. The suspensions were further diluted in Rosewell Park Memorial Institute (RPMI) 1640 medium (Life technologies, New York, USA) to yield an inoculum concentration of approximately 0.5 1×10^3 to 2.5 1×10^3 cells/ml. Minimum inhibitory concentration (MIC) and minimum fungicidal concentration (MFC) assay was performed in 96-well plates (Iwaki, Tokyo, Japan) and each of the Candida species was exposed to a double dilution of SM21. Amphotericin B was used as a positive control. All the experiments were preformed three occasions with duplicates for all isolates. The plates were incubated at 35° C. for 48 h to evaluate MIC. In the case of Cryotococcus neoformans, reading were taken after 72 h. Aforementioned assay was performed for C. albicans ATCC 90028, C. albicans SC5314 and 10 C. albicans clinical isolates. Moreover, MIC/MFC determination was carried out for other fungal species such as C. glabrata, C. krusei, C. tropicalis, C. parapsilosis, C. neoformans, Aspergillus fumigates and Penicillium marneffei. […]

[3] = tested on: C. albicans drug resistant isolate; test: Susceptibility of multidrug resistant clinical isolates, CLSI M27A broth microdilution; assay type: cell-based, Candida albicans; settings: C. albicans T1675; resistant to Fluconazole, Itraconazole
Description: (§2) Oral Biosciences laboratory has one of the largest collections of fungal isolates, particular that of Candida species in the world. In our previous studies, we have found multidrug resistant clinical isolates of Candida species against existing antifungals. In particular, some of these strains are resistant to best antifungal agents to date such as caspofungin, amphotericin B and fluconazole. Therefore, we performed antifungal susceptibility testing for SM21 against these drug resistant Candida isolates suing CLSI M27A brothmicrodultion assay and CLSI M44-A disc diffusion assay.

[4] = tested on: C. tropicalis drug resistant isolates; test: as above; assay type: cell-based, Candida tropicalis; settings: resistant to Itraconazole
Description: as §2

[5] = tested on: C. albicans SC5314 and C. albicans ATCC 90028; test: Antifungal activity compared with caspofungin and amphotericin B (FIG. 2, CLSI M44-A disc diffusion); assay type: cell-based, Candida albicans
Description: as §2

[6] = tested on: resistant isolate T-1549; test: as above; assay type: cell-based, C. guilliermondii; settings: resistant isolate T-1549 (FIG. 2C)
Description: as §2

[7] = tested on: mixed species Candida biofilms; test: Mixed species Candida biofilm MIC, XTT reduction assay; assay type: cell-based; settings: 48 h mixed species biofilms, two Candida species at 1×10^7 cells/ml each
Experimental: Clinical studies have shown that some of the Candida species could involve mixed Candida species such as C. albicans with non-albicans Candida species. Therefore, next we formed mixed species biofilms using the methods we have used in our previous published studies. This methodology is essentially similar to what mentioned under mono-species biofilms except initial inoculums involve two Candida species at equal inoculums size of 1×10^7 cells/ml. After 48 h of growth, mixed species Candida biofilms were subjected to serially diluted concentration of SM21 and MIC was determined by XTT reduction assay (FIG. 5).

[8] = tested on: Vero cell line; test: Cytotoxicity assay; assay type: cell-based; settings: at effective concentration
[9] = tested on: human gingival fibroblasts; test: Cytotoxicity assay (MTT reduction, FIG. 6); assay type: cell-based; settings: primary human gingival fibroblasts; at effective concentration
Experimental: (§3) FIG. 6. MTT reduction assay of primary culture human monocytes, gingival fibroblasts and oral keratinocytes showing safety of SM21.
(§4) Next, we used mouse model and treated the animals with 100 times of the effective dose (2 μg) i.e. 200 μg of SM21 twice a day for five days.

[10] = tested on: human monocytes; test: Cytotoxicity assay (MTT reduction, FIG. 6); assay type: cell-based; settings: primary human monocytes; at effective concentration
Experimental: as §3, §4

[11] = tested on: human oral keratinocytes; test: Cytotoxicity assay (MTT reduction, FIG. 6); assay type: cell-based; settings: primary human oral keratinocytes; at effective concentration
Experimental: as §3, §4

[12] = In vivo safety in mouse model; settings: 200 μg (100 times the effective dose of 2 μg) twice a day for five days
Experimental: as §4

[13] = tested on: C. albicans, C. glabrata, C. krusei, C. tropicalis, C. parapsilosis, C. neoformans, Aspergillus fumigates and Penicillium marneffei; test: Antifungal activity against wide range of fungal species (summary); assay type: cell-based; settings: range over fungal species
Experimental: as §1

Question: With CN(C)c1ccc(/C=C/c2cc(C(C)(C)C)[o+]c(C(C)(C)C)c2)cc1.[O-][Cl+3]([O-])([O-])[O-] [SM21] as the compound, how does the “Antifungal activity against clinical isolates” value ([1]; 20 C. albicans strains isolated from HIV/AIDS patients) read?
Answer: active against all isolates

Question: What about the “Susceptibility (MIC90)” value ([1]; C. albicans ATCC 90028) of the same compound?
Answer: 0.2 µg/mL

Question: What about the “Susceptibility (MIC90)” value ([1]; C. albicans CL1) of the same compound?
Answer: 0.2 µg/mL

Question: And the “Susceptibility (MIC90)” value ([1]; C. albicans CL2)?
Answer: 0.2 µg/mL

Question: What about the “Susceptibility (MIC90)” value ([1]; C. albicans CL3) of the same compound?
Answer: 1.6 µg/mL

Question: And the “Susceptibility (MIC90)” value ([1]; C. albicans CL4)?
Answer: 0.8 µg/mL

Question: What about the “Susceptibility (MIC90)” value ([1]; C. albicans CL5) of the same compound?
Answer: 1.6 µg/mL

Question: What about the “Susceptibility (MIC90)” value ([1]; C. albicans CL6) of the same compound?
Answer: 1.6 µg/mL

Question: What about the “Susceptibility (MIC90)” value ([1]; C. albicans CL7) of the same compound?
Answer: 0.8 µg/mL

Question: What about the “Susceptibility (MIC90)” value ([1]; C. albicans CL8) of the same compound?
Answer: 0.8 µg/mL

Question: And the “Susceptibility (MIC90)” value ([1]; C. albicans CL9)?
Answer: 1.6 µg/mL

Question: And the “Susceptibility (MIC90)” value ([1]; C. albicans CL10)?
Answer: 1.6 µg/mL

Question: What about the “Susceptibility (MIC90)” value ([1]; C. albicans SC5314) of the same compound?
Answer: 0.2 µg/mL

Question: What about the “Susceptibility (MIC90)” value [2] of the same compound?
Answer: 0.4 µg/mL

Question: What about the MIC [3] of the same compound?
Answer: 0.5 µg/mL

Question: And the MIC ([4]; C. tropicalis T789)?
Answer: 1 µg/mL

Question: And the MIC ([4]; C. tropicalis T1148)?
Answer: 0.5 µg/mL

Question: What about the MIC ([4]; C. tropicalis T1427) of the same compound?
Answer: 1 µg/mL

Question: And the “Susceptibility of the strain to the agent” value ([5]; C. albicans ATCC 90028, CLSI quality control strain (FIG. 2B))?
Answer: susceptible

Question: And the “Susceptibility of the strain to the agent” value ([5]; C. albicans SC5314 (FIG. 2A))?
Answer: susceptible

Question: What about the “Effectiveness against resistant isolate” value [6] of the same compound?
Answer: effective

Question: And the “Active concentration (MIC by XTT reduction assay) against mixed species biofilms” value [7]?
Answer: 25 µg/mL

Question: What about the Cytotoxicity [8] of the same compound?
Answer: no cytotoxicity

Question: What about the Cytotoxicity [9] of the same compound?
Answer: no cytotoxicity

Question: And the Cytotoxicity [10]?
Answer: no cytotoxicity

Question: And the Cytotoxicity [11]?
Answer: no cytotoxicity

Question: And the “Detrimental effect in terms of weight reduction and side effects” value [12]?
Answer: did not show any detrimental effect

Question: What about the “Concentration with antifungal activity against wide range of fungal species” value [13] of the same compound?
Answer: 0.2 to 6.25 µg/mL

Source: patent US9642829B2, “Antifungal compound and uses thereof” (The University of Hong Kong, priority 2012, dated 2017)
